In patent US20260297060A1, “COMPOUNDS FOR THE DEGRADATION OF MUTANT BRAF” (C4 THERAPEUTICS, INC., priority 2023, published 2026):

What was measured:
[1] = target: T1, human bile salt export pump (BSEP) efflux transporter (Homo sapiens, UniProt O95342); experiment: BSEP Vesicular Transport, one concentration inhibition assay; format: biochemical; details: human BSEP (HEK293) vesicles, taurocholate 0.2 μM, 4 mM Mg-ATP, 2 replicates
T1 construct: purchased SOLVO Biotechnology Charles River Laboratories, Szeged, Hungary; host or cells: HEK293 (inside out membrane vesicles)
T1 sequence (O95342 whole entry): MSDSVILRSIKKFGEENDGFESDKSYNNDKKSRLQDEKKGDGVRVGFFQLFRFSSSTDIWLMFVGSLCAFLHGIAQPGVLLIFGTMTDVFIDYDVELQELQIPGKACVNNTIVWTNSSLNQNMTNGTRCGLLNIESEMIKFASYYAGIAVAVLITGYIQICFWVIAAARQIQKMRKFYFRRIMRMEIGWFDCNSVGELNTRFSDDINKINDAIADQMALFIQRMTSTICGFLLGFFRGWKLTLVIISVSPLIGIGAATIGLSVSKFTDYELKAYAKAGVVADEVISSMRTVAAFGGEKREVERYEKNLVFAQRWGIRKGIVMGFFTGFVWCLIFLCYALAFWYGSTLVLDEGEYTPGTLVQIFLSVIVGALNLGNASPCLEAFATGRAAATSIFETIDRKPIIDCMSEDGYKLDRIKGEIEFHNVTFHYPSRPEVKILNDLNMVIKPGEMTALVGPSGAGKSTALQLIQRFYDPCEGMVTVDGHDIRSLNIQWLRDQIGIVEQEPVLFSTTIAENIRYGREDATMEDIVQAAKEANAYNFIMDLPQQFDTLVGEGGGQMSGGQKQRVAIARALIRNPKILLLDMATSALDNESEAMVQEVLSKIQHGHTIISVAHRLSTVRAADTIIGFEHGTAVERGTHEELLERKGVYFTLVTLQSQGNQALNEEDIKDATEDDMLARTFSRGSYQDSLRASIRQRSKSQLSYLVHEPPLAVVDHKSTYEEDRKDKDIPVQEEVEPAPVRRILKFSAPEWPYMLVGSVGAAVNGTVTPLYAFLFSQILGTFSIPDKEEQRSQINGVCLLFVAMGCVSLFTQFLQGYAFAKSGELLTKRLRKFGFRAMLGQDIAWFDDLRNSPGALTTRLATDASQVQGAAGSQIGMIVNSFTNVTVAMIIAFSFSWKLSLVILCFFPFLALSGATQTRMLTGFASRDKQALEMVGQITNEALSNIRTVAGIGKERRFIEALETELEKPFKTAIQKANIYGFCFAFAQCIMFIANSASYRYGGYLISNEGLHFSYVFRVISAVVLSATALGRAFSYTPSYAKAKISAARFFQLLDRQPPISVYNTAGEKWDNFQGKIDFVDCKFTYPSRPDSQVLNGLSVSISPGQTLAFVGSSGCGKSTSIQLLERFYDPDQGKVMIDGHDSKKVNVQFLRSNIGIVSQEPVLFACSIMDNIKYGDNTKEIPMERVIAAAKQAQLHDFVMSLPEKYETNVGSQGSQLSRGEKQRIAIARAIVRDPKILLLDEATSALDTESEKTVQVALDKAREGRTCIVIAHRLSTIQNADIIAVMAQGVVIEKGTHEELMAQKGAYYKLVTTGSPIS
Description: The vesicular transport (VT) assays were performed using inside out membrane vesicles derived from HEK293 cells expressing the specified human bile salt export pump (BSEP) efflux transporter. The membrane vesicles were procured from SOLVO Biotechnology Charles River Laboratories, Szeged, Hungary.
The principle of the assay relies on measuring the accumulation of substrate into inside out vesicles containing the efflux transporter. By utilizing inside out vesicles, the ATP-dependent transport of substrate is directed into the vesicular lumen, where low permeability compounds are then essentially trapped.
For the 1 concentration inhibition assay, each compound was tested in the presence of ATP (active transport) in 2 replicates.
The solvent control (DMSO) was tested in the presence of ATP (active transport) and in the presence of AMP (background) in 8 replicates. […]
The samples were then be transferred to a filter plate and washed with 200 μL cold washing mix5-times to remove any free compounds or taurocholate probe substrate. The amount of taurocholate probe substrate inside the filtered vesicles were determined by liquid scintillation counting. […] The amount of taurocholate probe substrate inside the filtered vesicles were determined by liquid scintillation counting.

A375 tumors = experiment: In vivo efficacy, A375 xenograft tumor volume (Example 8); set-up: species or system human A375 melanoma xenograft in female BALB/c nude mice; details: oral, FIG. 22
Description: FIG. 22 is a line graph showing in vivo efficacy of encorafenib, Compound 8, Compound 26, and Compound 38 in the treatment of female BALB/c nude mice bearing A375 tumors. Mice were treated with vehicle (10 μL/g, p.o., BID), encorafenib (35 mg/kg, p.o., QD), Compound 8 (10 mg/kg, p.o., BID), Compound 26 (10 mg/kg, p.o., BID), or Compound 38 (10 mg/kg, p.o., BID) by oral gavage (p.o.). Data points represent group mean change in tumor volume. Error bars represent standard error of the mean (SEM). The x-axis is the time measured in days and the y-axis is A375 tumor volume measured in mm^3. The experiment was conducted as described in Example 8.

[2] = Human dose projections for Compound 26 (allometry, PBPK model), Example 15
Excerpt: The first-in-human dose projections for Compound 26 were made using prediction models. These models utilized experimentally determined physicochemical and ADME parameters relevant to Compound 26. The in vivo plasma clearance (Cl) and volume of distribution (Vdss) values obtained across different preclinical species (mouse, rat, dog and monkey) were scaled to predict human values using allometry. […] In addition, the human efficacious AUC (area under the concentration curve) was derived from a PKPD efficacy study in a tumor bearing mouse model. […] With these inputs a pharmacokinetic model (PBPK) was developed to project first in human BID dose. The oral bioavailability data for Compound 26 from preclinical species, mouse, rat, dog and monkey was simulated in the PBPK model for that species, to build confidence in the human PBPK model.

In the case of `CCN(C)S(=O)(=O)Nc1ccc(F)c(Oc2ccc3ncn([C@H]4COC5(CCN(C6CC(c7cc8c(cc7F)c(N7CCC(=O)NC7=O)nn8C)C6)CC5)C4)c(=O)c3c2)c1C#N` (single isomer, unassigned) [Compound 70], the “BSEP Inhibition SD Inhibition %” value [1] is reported as 80%.

In the case of `CCN(C)S(=O)(=O)Nc1ccc(F)c(Oc2ccc3ncn(C4CC5(CCN(C6CCC(c7cc8c(cc7F)c(N7CCC(=O)NC7=O)nn8C)CC6)CC5)C4)c(=O)c3c2)c1C#N` (single isomer, unassigned) [Compound 8, 6-[2-cyano-3-[[ethyl(methyl)sulfamoyl]amino]-6-fluoro-phenoxy]-3-[7-[4-[3-(2,4-dioxohexahydropyrimidin-1-yl)-5-fluoro-1-methyl-indazol-6-yl]cyclohexyl]-7-azaspiro[3.5]nonan-2-yl]-4-oxo-quinazoline], the “tumor regressions in the xenograft model” value (A375 tumors; 10 mg/kg BID, A375 xenografts) is reported as “profound tumor regressions” and the “antitumor response compared with comparators dabrafenib or encorafenib” value (A375 tumors; A375 human melanoma xenografts) is reported as “more robust antitumor response”.

For `CCN(C)S(=O)(=O)Nc1ccc(F)c(Oc2ccc3ncn([C@H]4COC5(CCN(C6CC7(C6)CN(c6cc8c(cc6F)c(N6CCC(=O)NC6=O)nn8C)C7)CC5)C4)c(=O)c3c2)c1C#N` [Compound 26, (3R)-3-[6-[2-cyano-3-[[ethyl(methyl)sulfamoyl]amino]-6-fluoro-phenoxy]-4-oxo-quinazolin-3-yl]-8-[2-[3-(2,4-dioxohexahydropyrimidin-1-yl)-5-fluoro-1-methyl-indazol-6-yl]-2-azaspiro[3.3]heptan-6-yl]-1-oxa-8-azaspiro[4.5]decane], the “Human Vdss” value ([2]; Table 86) was 0.50 L/kg and the “Human CL (PPB corrected plasma clearance)” value ([2]; allometry from mouse, rat, dog and monkey) was 0.88 mL/min/kg.
